Measurements reported in US20020019344A1, “Methods of preventing allograft rejection” (priority 2000, published 2002).
Read-outs that look alike come from different tables or passages of the source.

Experiments:
monocyte/macrophages = conditions: Thieringer et al.; cited from earlier work
[1] = test system: IL-2 secretion in human T lymphocytes; assay: Inhibition of PHA/PMA-induced IL-2 secretion in human T lymphocytes; type: cell-based; conditions: for activation of IL-2 production: 5 micromolar, preincubation 12 hours prior to activator
Procedure: The following test can be used to detect whether an insulin sensitizing agent is also able to inhibit IL-2 production. Isolated human T lymphocytes or a mammalian lymphocyte cell line which expresses PPARgamma is stimulated with one or a combination of PHA/PMA, TNF-alpha, interferon-gamma or some other factor that activates induction of IL-2 gene expression. Production of IL-2 is determined by measuring the concentration of IL-2 in the supernatant from cells using Endogen kits (Wolbum), as described by Yang et al.

NFAT = assay: Inhibition of NFAT activation, electrophoretic mobility shift assay; type: cell-based, human; conditions: 5 micromolar; preincubation 2 hours prior to activator
Procedure: Isolated human T lymphocytes or a mammalian cell line such as a Jurkat T cell line which expresses PPARgamma is stimulated with a concentration of one or a combination of PHA/PMA, TNF-alpha, interferon-gamma or some other factor that activates NFAT. Transcriptional activation of NFAT is determined by electrophoretic mobility shift assay similar to that described by Yang et al.

NF-kappaB = assay: Inhibition of NF-kappaB activation, electrophoretic mobility shift assay; type: cell-based, human; conditions: 5 micromolar; preincubation 2 hours prior to activator
Procedure: The following test can be used to generically identify compounds of use in this invention based upon their ability to act as an agonist of PPAR. […] The rexinoid, LG100754 is a selective RXR/PPARgamma agonists. These compounds are tested for the ability to inhibit activity of NF-kappaB. Isolated human T lymphocytes or a mammalian cell line such as a Jurkat T cell line which expresses PPARgamma is stimulated with a concentration of one or a combination of: phytohemagglutinin/phorbol 12-myristate 13-acetate (PHA/PMA), TNF-alpha, interferon-gamma or some other factor that activates NF-kappaB. Activation of NF-kappaB is determined by electrophoretic mobility shift assay similar to that described by Rossi et al.

[2] = 10 uM, preincubated with drug for 24 hr, +PHA/PMA

SMILES: Cc1oc(-c2ccccc2)nc1C(O)COc1ccc(CC2SC(=O)NC2=O)cc1 (centres unmarked) [AD-5075]
- effect on TNF-alpha and lipopolysaccharide production (monocyte/macrophages): no effect

SMILES: CN(CCOc1ccc(CC2SC(=O)NC2=O)cc1)C(=O)CCCCC1CCSS1 (centres unmarked) [BP1-003]
- IL-2 released [1, 2]: 37 ± 7 pg/ml supernatant
- Percent Inhibition [1, 2]: 92%

SMILES: CCCOc1cc2c(cc1\C(C)=C/C=C/C(C)=C/C(=O)O)C(C)(C)CCC2(C)C [LG100754]
- activation of NFAT (NFAT): inhibits the activation of NFAT
- activation of NF-kappaB (NF-kappaB): inhibits the activation of NF-kappaB
- activation of IL-2 production [1]: inhibits the activation of IL-2 production

SMILES: CCCCC[C@H](O)/C=C/[C@H]1C(=O)C=C[C@@H]1C/C=C\CCCC(=O)O [prostaglandin J2]
- activation of NFAT (NFAT): inhibits the activation of NFAT
- activation of NF-kappaB (NF-kappaB): inhibits the activation of NF-kappaB
- activation of IL-2 production [1]: inhibits the activation of IL-2 production

SMILES: CN(CCOc1ccc(CC2SC(=O)NC2=O)cc1)c1ccccn1 (centres unmarked) [rosiglitazone]
- IL-2 released ([1]; 0.1 uM, preincubated with drug for 12 hr, +PHA/PMA): 481 ± 11 c.p.m.
- IL-2 released ([1]; 1.0 uM, preincubated with drug for 12 hr, +PHA/PMA): 406 ± 12 c.p.m.
- IL-2 released ([1]; 10 uM, preincubated with drug for 12 hr, +PHA/PMA): 323 ± 26 c.p.m.
- IL-2 released [1, 2]: 112 ± 7 pg/ml supernatant
- inhibition at 0.1 µM ([1]; Homo sapiens, T-lymphocyte, 0.1 uM, preincubated with drug for 12 hr, +PHA/PMA, read-out: Percent Inhibition): 12%
- inhibition at 1 µM ([1]; Homo sapiens, T-lymphocyte, 1.0 uM, preincubated with drug for 12 hr, +PHA/PMA, read-out: Percent Inhibition): 25%
- inhibition at 10 µM ([1]; Homo sapiens, T-lymphocyte, 10 uM, preincubated with drug for 12 hr, +PHA/PMA, read-out: Percent Inhibition): 41%
- inhibition at 10 µM ([1]; Homo sapiens, T-lymphocyte, 10 uM, preincubated with drug for 24 hr, +PHA/PMA, read-out: Percent Inhibition): 75%
